One test addresses human TRPA1 (Homo sapiens, UniProt O75762). Kind of test: Calcium imaging of TRPA1 activation in human TRPA1 stably expressing HEK293 cells. As to conditions: for TRPA1 activation caused by antiseptics and antiseptic aids: phenoxyethanol 20 to 30 mM, IPBC 0.03 to 0.1 mM, triclosan 0.1 to 0.3 mM, benzyl alcohol 20 to 30 mM, FIG. 3.
The next test has as its system human skin. Kind of test: Sensory irritation property to antiseptic on human skin (discomfort score, sensitive women). The note with it: antiseptic solution (0.2% methylparaben + 0.35% phenoxyethanol) + 0.05% Compound 1 on face, versus antiseptic solution alone; maximum score, scale 0.0-3.0; FIG. 4. In kind it is in vivo. How it is done: (1) Selection of Test Subjects
To evaluate the skin sensory irritation, 22 women (age 20 to 59) having high sensitivity (1% lactic acid-sensitive, low current perception threshold and sensitive skin conscious with medical history of allergic disease) were selected as the subjects.
(2) Evaluation of Sensory Irritation Property to Antiseptic
After washing the face, the subjects entered a constant temperature-humidity room (room temperature 20° C., humidity about 50%) and were acclimated for 20 minutes, followed by applying 300 ill of distilled water heated to 37° C. in one side of the face from the cheek to the nose. 1, 2.5, 5 and 8 minutes after the application, the degree (intensity) of unpleasant sensation (pain) reported in accordance with the following unpleasant sensation reference values was notated.
0.0; None or pleasant sensation
0.5; Slight discomfort barely detectable
1.0; Mild discomfort, detectable sensation but tolerable
1.5; Mild to moderate discomfort
2.0; Moderate discomfort, unpleasant feeling but tolerable
2.5; Moderate to severe discomfort
3.0; Severe discomfort, intense unpleasant feeling
The distilled water was wiped off 8 minutes later, 300 μl of an antiseptic solution (0.2% methylparaben (MP)+0.35% phenoxyethanol (Phe) aqueous solution) was applied to the same part to notate the degrees of unpleasant sensation in the same manner. […]

A short description of test [1]: Inhibitory effect on irritating odor (ammonia odor, panel evaluation). In kind it is in vivo. As to conditions: for ammonia odor (irritating odor) score, average: 7-stage scale 0 to 6. How it is done: Ammonia was volatilized and saturated by putting a cotton ball impregnated with a 28% ammonia water (20 μl) in a 50 ml syringe for 12 hours or more. The intensity of ammonia odor (irritating odor) was evaluated using a 7-stage scale (0 to 6). Comparative evaluation was carried out without sniffing the test perfume.
(2) Evaluation scale 0; No irritating odor, 1; very faint, 2: faint, 3; easily noticeable, 4; strong, 5; very strong, 6; extremely strong

Where [2] appears, read: HEK293, read-out: Ratio for TRPA1 inhibition (%), 5.0 μM AITC, test material 100 μM.
Where [3] appears, read: HEK293, read-out: Ratio for TRPA1 inhibition (%), 10 μM AITC, test material 100 μM.

Where two headings read alike, the source gives them in different places.

human TRPA1, sequence (O75762 whole entry): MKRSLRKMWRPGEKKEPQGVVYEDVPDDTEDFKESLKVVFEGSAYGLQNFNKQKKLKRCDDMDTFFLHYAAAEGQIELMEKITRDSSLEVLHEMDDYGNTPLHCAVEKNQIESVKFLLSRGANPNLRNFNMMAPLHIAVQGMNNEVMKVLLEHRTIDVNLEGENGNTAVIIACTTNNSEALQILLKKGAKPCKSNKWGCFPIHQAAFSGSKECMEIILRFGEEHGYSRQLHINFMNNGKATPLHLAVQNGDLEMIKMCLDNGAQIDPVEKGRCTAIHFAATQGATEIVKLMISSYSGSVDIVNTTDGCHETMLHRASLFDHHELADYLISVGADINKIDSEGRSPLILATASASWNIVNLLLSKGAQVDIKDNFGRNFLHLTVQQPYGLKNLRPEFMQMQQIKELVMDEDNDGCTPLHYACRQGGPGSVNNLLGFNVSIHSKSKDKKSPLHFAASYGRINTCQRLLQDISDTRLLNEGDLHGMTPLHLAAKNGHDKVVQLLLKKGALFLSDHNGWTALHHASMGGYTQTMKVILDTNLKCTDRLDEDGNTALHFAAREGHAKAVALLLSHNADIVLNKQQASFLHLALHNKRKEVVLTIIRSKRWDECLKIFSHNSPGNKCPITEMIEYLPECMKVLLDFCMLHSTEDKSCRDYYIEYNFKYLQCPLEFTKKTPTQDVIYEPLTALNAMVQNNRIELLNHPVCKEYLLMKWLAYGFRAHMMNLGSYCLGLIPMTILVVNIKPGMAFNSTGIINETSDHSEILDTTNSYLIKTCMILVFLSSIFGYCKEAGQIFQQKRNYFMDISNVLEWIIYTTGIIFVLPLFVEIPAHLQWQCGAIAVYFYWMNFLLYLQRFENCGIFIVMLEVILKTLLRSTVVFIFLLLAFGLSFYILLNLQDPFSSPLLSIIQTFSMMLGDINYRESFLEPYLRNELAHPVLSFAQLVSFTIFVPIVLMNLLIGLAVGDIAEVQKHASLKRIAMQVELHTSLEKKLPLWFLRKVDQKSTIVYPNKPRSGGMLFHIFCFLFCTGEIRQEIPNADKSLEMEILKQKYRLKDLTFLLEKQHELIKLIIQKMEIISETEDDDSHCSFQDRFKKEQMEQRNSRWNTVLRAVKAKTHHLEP
Source text for human TRPA1: (1) Preparation of Human TRPA1 Stably Expressing Cell Line
The human TRPA1 gene of which the full length is inserted into pENTR223.1 was purchased from Open Biosystems. The TRPA1 gene was sub-cloned into an expression vector pcDNA3.2-V5/DEST (Invitrogen) and transfected into HEK293 cells using Lipofectamine 2000 (Invitrogen).
(3) Evaluation of the Inhibitory Effect on TRPA1 Activation Caused by AITC

For `CC(CC(C)C(C)O)c1ccccc1` (stereo not drawn) [Compound 12, 3-methyl-5-phenyl-2-hexanol], the results for the inhibition at 100 µM on human TRPA1 (setting [2]) and on human TRPA1 (setting [3]) were 54.9% and 27.1%, respectively.

`CC(CO)C(C)Cc1ccccc1` (stereo not drawn) [Compound 9, 2,3-dimethyl-4-phenyl-1-butanol]: the inhibition at 100 µM at human TRPA1 (setting [2]) stood at 89.5%; at human TRPA1 (setting [3]) it was 51.7%.

As a reminder, the IC50 is the midpoint of a concentration-inhibition curve. For `C/C(=C\C(C)c1ccccc1)CO` (stereo not drawn) [Compound 10, (E)-2-methyl-4-phenyl-2-penten-1-ol], the IC50 on human TRPA1 turned out to be 32.5 µM. Further, the inhibition at 100 µM on human TRPA1 (setting [2]) worked out at 92.9%; at human TRPA1 (setting [3]), 31.8%.

For `CC/C(=C\C(CC)c1ccccc1)CO` (stereo not drawn) [Compound 7, (E)-2-ethyl-4-phenyl-2-hexen-1-ol], on human TRPA1, the IC50 was 3.4 µM. For the same molecule, the inhibition at 100 µM on human TRPA1 (setting [2]) worked out at 103%; at human TRPA1 (setting [3]), 102%.

`OCCCCc1ccccc1` [Comparative Compound 2, 4-phenyl-1-butanol, reference compound]: the inhibition at 100 µM on human TRPA1 (setting [2]) was found to be 0%; at human TRPA1 (setting [3]) it was 0.8%.

Consider d-camphor [reference compound], for which the “Ratio for TRPA1 inhibition (%)” value on human TRPA1 (5.0 μM AITC, test material 100 μM) amounted to 1.8%; at human TRPA1 (5.0 μM AITC, test material 500 μM), 27.8%; on human TRPA1 (10 μM AITC, test material 100 μM), 0.0%; at human TRPA1 (10 μM AITC, test material 500 μM) it was 15.1%; on human TRPA1 (30 μM AITC, test material 0.01%), 6.9%; at human TRPA1 (30 μM AITC, test material 0.03%), 89.7%. Further, the “Ratio for TRPA1 inhibition (%)” value is on record as −0.89% at human TRPA1 (stimulant Benzyl alcohol 20 mM, test material 0.5 mM); 32.40% on human TRPA1 (stimulant IPBC 0.03 mM, test material 0.5 mM); 13.96% on human TRPA1 (stimulant Phenoxyethanol 20 mM, test material 0.5 mM); 27.45% on human TRPA1 (stimulant Triclosan 0.1 mM, test material 0.5 mM).

As to `CCC(C=C(C)CO)c1ccccc1` (stereo not drawn) [Compound 5, 2-methyl-4-phenyl-2-hexen-1-ol], the figures for the inhibition at 100 µM on human TRPA1 (setting [2]) and at human TRPA1 (setting [3]) were 83.4% and 27.6%, respectively.

On to `CC(CO)CC(C)c1ccccc1` (stereo not drawn) [Compound 1, 2-methyl-4-phenyl-1-pentanol], for which the “discomfort (pain) score” value in the test with human skin is “reduced”. Moreover, the “ammonia odor (irritating odor) score, average” value in test [1] (1 minute later) stood at 2; in test [1] (2 minutes later), 2; in test [1] (5 minutes later), 2; in test [1] (6 minutes later), 3; in test [1] (10 minutes later) it was 3; in test [1] (Immediately after inhalation of test perfume, five panelists), 1. For the same molecule, the “time the ammonia odor reducing effect was maintained after the inhalation” value in test [1] (after 1 minute sniffing of test perfume) amounted to 5 min.

In the case of `CC(CO)CCc1ccccc1` (stereo not drawn) [Compound 11, 2-methyl-4-phenyl-1-butanol], the values for the inhibition at 100 µM on human TRPA1 (setting [2]) and at human TRPA1 (setting [3]) were 19.5% and 3.9%, respectively.

Turning to `CC(CCCO)c1ccccc1` (stereo not drawn) [Comparative Compound 1, 4-phenyl-1-pentanol, reference compound], the inhibition at 100 µM on human TRPA1 (setting [3]) came to 0%.

Turning to `Oc1cc(Cl)ccc1Oc1ccc(Cl)cc1Cl` [triclosan, reference compound], the “TRPA1 activation caused by antiseptics and antiseptic aids” value on human TRPA1 is on record as “activate TRPA1 in a dose dependent manner”.

On to `CC/C(=C/C(CC)c1ccccc1)CO` (stereo not drawn) [Compound 8, (Z)-2-ethyl-4-phenyl-2-hexen-1-ol], for which the IC50 at human TRPA1 was 2 µM. The inhibition at 100 µM at human TRPA1 (setting [2]) is 102%; on human TRPA1 (setting [3]), 101%.

On to `CCC(CC(C)CO)c1ccccc1` (stereo not drawn) [Compound 6, 2-methyl-4-phenyl-1-hexanol], for which the values for the inhibition at 100 µM at human TRPA1 (setting [2]) and at human TRPA1 (setting [3]) were 18.7% and 9.7%, respectively.

As for `OCc1ccccc1` [benzyl alcohol, reference compound], the “TRPA1 activation caused by antiseptics and antiseptic aids” value at human TRPA1 is given as “activate TRPA1 in a dose dependent manner”.

The values are drawn from patent US9856196B2, “Agent for reduction of sensory irritation” (Kao Corporation, priority 2012, dated 2018).
